Laboratory results published in publication PMC12156041, “Design, Synthesis and Antiplasmodial Activities of a Library of Fluorine-Based 3-Benzylmenadiones” (Molecules, 2025).
In brackets after ≈: the same amount, converted by molar mass. Where two headings read alike, the source gives them in different places. Each block holds one compound with its values, some of them ahead of it.

Key:
[1] = system: P. falciparum NF54 strain; assay: P. falciparum NF54 [3H]hypoxanthine incorporation assay, 72 h, 0.5% Albumax; type: cell-based
[2] = system: rat myoblast cell line (L6 cells); type: cell-based
From the text: Considering the potency of plasmodione and the observed main metabolite 6-hydroxy–plasmodione eliminated in the urine of PD-treated mice, our primary goal was to introduce a fluorine atom at C-6 of the menadione core to block the process of drug metabolism from occurring in the host’s liver. In this aim, we prioritized the preparation of a library of 6-fluoro-3-benzylmenadiones by investigating the replacement of the trifluoromethyl group by diverse EWG and EDG groups in various loci of the aryl ring. For SAR, all compounds were tested for the inhibition of parasite growth in RBCs infected with a P. falciparum chloroquine-sensitive strain, NF54. The parasites were cultured in vitro according to known conditions. […] The cytotoxicity of the active compounds was assessed against a rat myoblast cell line (L6 cells).
Cell proliferation was assessed with resazurin, and the generally cytotoxic agent podophyllotoxin served as the positive control, as previously reported by the STPH authors M. R. and P. M. in their recently published article.

[3] = system: P. falciparum NF54 strain; conditions: cited from earlier work
[4] = system: rat myoblast cell line (L6 cells); conditions: cited from earlier work
[5] = system: P. berghei (GFP ANKA malaria strain); assay: In vitro efficacy testing with P. berghei, 24 h (species shift assay); type: cell-based; conditions: P. berghei, 24 h assay
[6] = system: P. falciparum NF54 strain; assay: Serum shift assay, P. falciparum NF54 72 h in 50% human serum; conditions: read-out: IC50 NF54 72 h, 50% Human Serum
[7] = Thermodynamic aqueous solubility (shake-flask, PBS-10% DMSO); type: physicochemical; conditions: PBS with 10% DMSO, aqueous with cosolvent or surfactant or cyclodextrin, PBS pH 7.4, 10% DMSO, 20 °C, read-out: Thermodynamic aq. Solubility in PBS-10% DMSO
Procedure: Thermodynamic Aqueous Solubility: The shake-flask method enabled us to determine the apparent thermodynamic solubilities of the DMSO stock solutions of the compounds. […] The mixture was equilibrated at 20 °C for 24 h. After centrifugation, the supernatant was injected into an HPLC column coupled to an LC-MS apparatus (with UV–Vis detection) in order to determine the compound concentration. […] These solutions were also injected in order to calibrate the concentration determination process. […] Measurements were performed in duplicate.

[8] = Chromatographic Hydrophobicity Index (CHI) by HPLC; type: physicochemical
Procedure: Determination of CHI values: Compound lipophilicity influences permeability and propensity to nonspecific binding to plasma proteins. Although precise, the classical “shake flask” method is not always appropriate for the determination of high hydrophobicity, which can be alternatively measured using the Chromatographic Hydrophobicity Index method. This HPLC-based technique leads to rapid and cheap estimates of partition coefficients. […] A measure of 5 μL was injected onto the HPLC (with UV–Vis detection). […] The measurements were performed in duplicate. […] The CHI is approximately equal to the proportion of acetonitrile in the mobile phase when the compound is eluted from the column.

[9] = system: P. falciparum NF54 strain; assay: P. falciparum NF54 24 h assay (species shift assay); type: cell-based; conditions: read-out: IC50 Pf NF54, 24 h; 24 h assay
[10] = Plasmodium falciparum, NF54, 72 h, P. falciparum NF54, 72 h, read-out: IC50
[11] = Plasmodium falciparum, NF54, as stated in text, read-out: IC50 against P. falciparum NF54

SMILES: CC1=C(CC2CCCCC2)C(=O)c2ccccc2C1=O [A-b-29]
IC50 [1, 10]: 913 nM
Tox/L6 [2]: 229.9 µM

SMILES: CC1=C(Cc2ccco2)C(=O)c2ccccc2C1=O [A-b-43]
IC50 ([3]; grey line ref 8): 501 nM
Tox/L6 ([4]; grey line ref 8): 4.2 µM

SMILES: C[C@H]1[C@H](OC(=O)CCC(=O)O)O[C@@H]2O[C@@]3(C)CC[C@H]4[C@H](C)CC[C@@H]1[C@@]24OO3 [AS, artesunate, reference compound]
IC50 ([1]; Plasmodium falciparum, NF54, 72 h, read-out: IC50 Pf NF54, 72 h, Table 5A, species shift experiment): 4.8 nM
IC50 ([5]; Plasmodium berghei, read-out: IC50 Pb): 13 nM
IC50 ([6]; Plasmodium falciparum, NF54, 72 h): 1 nM

SMILES: COc1cc(CC2=C(C)C(=O)c3ccc(F)cc3C2=O)cc(OC)c1 [B-a-35]
IC50 [1, 10]: 711 nM
Tox/L6 [2]: 293.0 µM

SMILES: CC1=C(Cc2ccc(I)cc2)C(=O)c2ccccc2C1=O [B-b-13]
IC50 ([3]; grey line ref 9): 115 nM
Tox/L6 ([4]; grey line ref 9): 138.6 µM

SMILES: CC1=C(Cc2ccccc2)C(=O)c2ccccc2C1=O [B-b-31]
IC50 ([3]; grey line ref 9): 1700 nM

SMILES: CC1=C(Cc2ccc([N+](=O)[O-])c(F)c2)C(=O)c2ccccc2C1=O [B-b-32]
IC50 ([3]; grey line ref 9): 598 nM
Tox/L6 ([4]; grey line ref 9): 189.2 µM

SMILES: CCN(CC)CCCC(C)Nc1ccnc2cc(Cl)ccc12 (stereo not drawn) [CQ, reference compound]
IC50 ([1]; read-out: IC50 NF54 72 h, 0.5% Albumax, Table 5B, 0.5% Albumax): 5 nM
IC50 ([1]; read-out: IC50 Pf NF54, 72 h, Table 5A, species shift experiment): 11 nM
IC50 [9]: 4.9 nM
IC50 ([5]; read-out: IC50 Pb, 24 h): 16 nM
IC50 [6]: 6.6 nM

SMILES: O=C1C(O)=C([C@H]2CC[C@H](c3ccc(Cl)cc3)CC2)C(=O)c2ccccc21 [atovaquone, reference compound]
solubility thermodynamic at 24 h [7]: 1.55 ± 0.04 µM (≈ 0.569 µg/mL)

The next lines start with results.

IC50 [1, 10]: 326 nM
SMILES: CC1=C(Cc2cccc(C#N)c2)C(=O)c2cc(F)ccc2C1=O [B-a-30]
Tox/L6 [2]: 33.3 µM

IC50 [1, 10]: 300 nM
SMILES: CC1=C(Cc2ccccc2)C(=O)c2cc(F)ccc2C1=O [B-a-31]
Tox/L6 [2]: 174.5 µM

IC50 [1, 10]: 705 nM
SMILES: CC1=C(Cc2ccc([N+](=O)[O-])c(F)c2)C(=O)c2cc(F)ccc2C1=O [B-a-32]
Tox/L6 [2]: 107.4 µM

IC50 [1, 11]: < 100 nM
SMILES: CC1=C(Cc2cccc(C(F)(F)F)c2)C(=O)c2ccccc2C1=O [B-b-1]
IC50 ([3]; grey line ref 9): 62 nM
Tox/L6 ([4]; grey line ref 9): 57.1 µM

IC50 [1, 11]: < 100 nM
SMILES: CC1=C(Cc2ccccc2C(F)(F)F)C(=O)c2ccccc2C1=O [B-b-2]
IC50 ([3]; grey line ref 9): 26 nM
Tox/L6 ([4]; grey line ref 9): 249.8 µM

IC50 [1, 10]: 89 nM
IC50 [1, 11]: < 100 nM
SMILES: CC1=C(Cc2cccc(F)c2)C(=O)c2ccccc2C1=O [B-b-5]
Tox/L6 [2]: 71.0 µM

IC50 [1, 10]: 190 nM
SMILES: CC1=C(Cc2cccc(C#N)c2)C(=O)c2ccccc2C1=O [B-b-30]
Tox/L6 [2]: 72.6 µM

IC50 [1, 11]: < 100 nM
solubility thermodynamic at 24 h [7]: 0.75 ± 0.14 µM (≈ 0.242 µg/mL)
CHI ([8]; Chromatographic Hydrophobicity Index, lipophilicity index): 107
chromatographic logD ([8]; pH 7.4, read-out: log D7.4): 4.27
SMILES: COc1cc(CC2=C(C)C(=O)c3ccccc3C2=O)cc(OC)c1 [B-b-35]
IC50 ([3]; grey line ref 9): 52 nM
Tox/L6 ([4]; grey line ref 9): 70.3 µM

IC50 [1, 10]: 947 nM
SMILES: CC1=C(Cc2ccco2)C(=O)c2cc(F)ccc2C1=O [C-a-43]
Tox/L6 [2]: 3.8 µM

IC50 [1, 10]: 235 nM
SMILES: CC1=C(Cc2ccc3scnc3c2)C(=O)c2ccccc2C1=O [C-b-40]
Tox/L6 [2]: 50.29 µM

IC50 [1, 10]: 370 nM
SMILES: CC1=C(Cc2ccc3ncsc3c2)C(=O)c2ccccc2C1=O [C-b-41]
Tox/L6 [2]: 49.81 µM

IC50 [1, 10]: 48 nM
SMILES: CC1=C(Cc2ccc(S(F)(F)(F)(F)F)cc2)C(=O)c2ccccc2C1=O [C-b-46, 4′-SF5-substituted 3-benzylmenadione]
Tox/L6 [2]: 35.1 µM
